Values quoted from earlier work as cited in patent US20240261419A1, “[…] PSILOCIN CONJUGATES FOR TREATMENT OF MENTAL ILLNESSES” (LONDON PHARMACEUTICALS AND RESEARCH CORPORATION, priority 2021, published 2024).
Where two headings read alike, the source gives them in different places.

Conditions: background comparison of pharmacokinetic profiles

Compound	time to reach maximum plasma level (CBD)	time to reach maximum plasma level (psilocybin)
C=C(C)[C@@H]1CCC(C)=C[C@H]1c1c(O)cc(CCCCC)cc1O [CBD, cannabidiol]	4 to 6 h	–
CN(C)CCc1c[nH]c2cccc(OP(=O)(O)O)c12 [psilocy bin, psilocybin]	–	1.5 h
